Results: patent US5716528A, “Peroxide water treatment process” (Domtar Inc., priority 1995, dated 1998)

Assays:
[1] = Effect of peroxide/penta weight ratios on the oxidation of pentachlorophenol; settings: Fe2+/H2O2 3%, pH 3.5
Description: a) Effect of peroxide/penta weight ratios on the oxidation of pentachlorophenol
Appropriate amounts of technical grade pentachlorophenol were dissolved in deionized water (the pH of which was kept at 8 to 9 with 5% NaOH solution) to yield solutions containing 19.0, 38.1, 66.6 and76.2 ppm pentachlorophenol.
100 ml of each of the above solutions was placed in each of four 100 ml beakers.
157.5 mg H2 O2 (≈0.42 ml of 35% solution) were added to each beaker to give peroxide/penta weight ratios of 82.7, 41.3, 27.6 and 20.7, respectively.
4.74 mg of Fe^2+ (≈0.85 ml of 0.1 molar solution of ferrous sulphate heptahydrate) were then added to give a constant Fe^2+ /H2 O2 weight ratio of 3% in each beaker.

[2] = Field trials: peroxide oxidation of wood preserving wastewater, then carbon adsorption
Description: In field trials 900 liter samples of wood preserving wastewater of known Chemical Oxygen Demand (COD) was treated as follows:
This antifoam agent was added because foaming was expected in view of the large volume of waste water being treated.
An amount of Fe^2+ (as 0.1M or 1M ferrous sulphate heptahydrate) equivalent to 5-7% of the total H2 O2 by weight was added with fast agitation. The pH was kept at 3-3.8 at a temperature of 40°±5° C.
The reaction was judged complete when the colour of the reaction mixture turned light yellow similar to that of a ferric ions solution (3-3.5 hrs.)
The catalyst was separated by co-precipitation with alum or poly electrolytes.

Oc1c(Cl)c(Cl)c(Cl)c(Cl)c1Cl [Pentachlorophenol, pentachlorophenol] gave a PCP destruction ([1]; PCP 19.0 ppm, H2O2/PCP ratio 82.7) of 96.2%, a PCP destruction ([1]; PCP 38.1 ppm, H2O2/PCP ratio 41.3) of 98.2% and a PCP destruction ([1]; PCP 66.6 ppm, H2O2/PCP ratio 27.6) of 98.9%. For the same compound, the PCP destruction ([1]; PCP 76.2 ppm, H2O2/PCP ratio 20.7) was 95.9%, the “removed after oxidation followed by carbon adsorption” value ([2]; field trial) was over 99.3% and the “removed after oxidation only” value ([2]; field trial) was 92.60-98.75%. For the same compound, the “destruction levels of contaminants by oxidation” value ([2]; summary of process) was about 99.9%.
